Columns and labels:
[1] = biological target: T1, Growth hormone secretagogue receptor type 1 (Homo sapiens, UniProt Q92847); assay: Antagonist activity at human GHSR1a receptor assessed as intracellular Ca2+ concentration by aequorin luminescent assay; assay type: functional, cell-based
[2] = Metabolic stability in rat liver S9 fraction assessed as compound remaining after 1 hr; assay type: ADME, subcellular; conditions: read-out: Stability
[3] = Metabolic stability in human liver S9 fraction assessed as compound remaining after 1 hr; assay type: ADME, subcellular; conditions: read-out: Stability
[4] = Clearance in Sprague-Dawley rat at 2 mg/kg, po; assay type: ADME, organism-based; design: dose 2 mg/kg, route oral; conditions: in vivo
[5] = Oral bioavailability in Sprague-Dawley rat at 2 mg/kg; assay type: ADME, organism-based; conditions: in vivo
[6] = AUC in Sprague-Dawley rat at 2 mg/kg, po; assay type: ADME, organism-based; design: dose 2 mg/kg, route oral; conditions: plasma
[7] = biological target: Growth hormone secretagogue receptor type 1 (Mus musculus, UniProt Q99P50); assay: Antagonist activity at mouse GHSR1 receptor assessed as intracellular Ca2+ concentration by aequorin luminescent assay; assay type: functional, cell-based
Chain of Growth hormone secretagogue receptor type 1 (Mus musculus, UniProt Q99P50) (Q99P50 whole entry): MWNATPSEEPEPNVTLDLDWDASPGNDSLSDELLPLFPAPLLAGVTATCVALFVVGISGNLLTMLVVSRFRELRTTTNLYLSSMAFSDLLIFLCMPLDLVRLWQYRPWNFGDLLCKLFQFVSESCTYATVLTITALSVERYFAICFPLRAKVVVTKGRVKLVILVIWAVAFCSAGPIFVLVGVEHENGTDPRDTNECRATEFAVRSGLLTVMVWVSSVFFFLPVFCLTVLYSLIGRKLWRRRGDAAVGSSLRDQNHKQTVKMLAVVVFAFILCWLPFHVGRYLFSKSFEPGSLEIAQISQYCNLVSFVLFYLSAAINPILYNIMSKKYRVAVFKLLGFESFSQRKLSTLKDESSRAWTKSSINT

[8] = biological target: T1, Growth hormone secretagogue receptor type 1; assay: Displacement of [125I]Ghrelin from human GHSR1a receptor

T1 sequence (Q92847 whole entry): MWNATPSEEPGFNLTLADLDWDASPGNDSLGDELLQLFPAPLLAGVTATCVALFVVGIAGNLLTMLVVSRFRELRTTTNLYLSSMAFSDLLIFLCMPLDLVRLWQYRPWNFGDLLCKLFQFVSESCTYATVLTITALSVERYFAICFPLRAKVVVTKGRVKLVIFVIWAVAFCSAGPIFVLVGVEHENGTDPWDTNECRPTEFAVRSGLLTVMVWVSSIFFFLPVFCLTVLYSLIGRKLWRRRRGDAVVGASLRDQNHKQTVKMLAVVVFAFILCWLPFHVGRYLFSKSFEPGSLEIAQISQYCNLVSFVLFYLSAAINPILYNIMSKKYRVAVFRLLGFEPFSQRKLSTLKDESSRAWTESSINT

Row | SMILES | IC50 [1] [nM] | remaining at 1 h [2] [%] | remaining at 1 h [3] [%] | other results
1 | CC(C)[C@H](C(=O)NC1CCN(Cc2ccccc2)CC1)N1CC(=O)Nc2ccc(Oc3ccc(F)cc3)cc2C1=O | 11 | – | – | –
2 | COc1cccc(Oc2ccc3c(c2)C(=O)N([C@@H](C(=O)NC2CCN(Cc4ccccc4)CC2)C(C)C)CC(=O)N3)c1 | 143 | 10 | 22 | –
3 | CC(C)[C@@H](C(=O)NC1CCN(Cc2ccccc2)CC1)N1CC(=O)Nc2ccc(Oc3ccccc3)cc2C1=O | 196 | – | – | –
4 | CC(C)[C@H](C(=O)NC1CCN(C(=O)c2ccccc2)CC1)N1CC(=O)Nc2ccc(Oc3ccccc3)cc2C1=O | > 10000 | – | – | –
5 | CC(C)[C@H](C[C@H]1CC[C@@H](NCC2CC2)CC1)N1CC(=O)Nc2ccc(Oc3ccc(F)cc3F)cc2C1=O | 20 | 27 | 68 | –
6 | CC(C)[C@H](C(=O)N1CCC(NCC2CC2)CC1)N1CC(=O)Nc2ccc(Oc3ccccc3)cc2C1=O | 50 | 71 | 86 | –
7 | CC(C)[C@H](C(=O)N1CCC(NC(C)(C)c2ccccc2)CC1)N1CC(=O)Nc2ccc(Oc3ccccc3)cc2C1=O | 16.5 | 48 | 19 | –
8 | COc1ccc(Oc2ccc3c(c2)C(=O)N([C@@H](C(=O)NC2CCN(Cc4ccccc4)CC2)C(C)C)CC(=O)N3)cc1 | 79 | – | – | –
9 | CC(C)[C@H](C(=O)N1CCC(NCCC2CCOCC2)CC1)N1CC(=O)Nc2ccc(Oc3ccccc3)cc2C1=O | 313 | – | – | –
10 | CC(C)[C@H](C(=O)NC1CCNCC1)N1CC(=O)Nc2ccc(Oc3ccccc3)cc2C1=O | > 10000 | – | – | –
11 | O=C1CN([C@@H](C(=O)NC2CCN(Cc3ccccc3)CC2)C2CC2)C(=O)c2cc(Oc3ccccc3)ccc2N1 | 12 | – | – | –
12 | CC(C)[C@H](C(=O)NC1CCN(Cc2ccccc2)CC1)N1CC(=O)Nc2ccc(Oc3cccc(Cl)c3)cc2C1=O | 171 | – | – | –
13 | CC(C)[C@H](C(=O)NC1CCC(Cc2ccccc2)CC1)N1CC(=O)Nc2ccc(Oc3ccccc3)cc2C1=O (stereo not given in full) | > 10000 | 95 | 23 | –
14 | COc1ccccc1Oc1ccc2c(c1)C(=O)N([C@@H](C(=O)NC1CCN(Cc3ccccc3)CC1)C(C)C)CC(=O)N2 | 26 | 19 | 26 | –
15 | O=C1CN(CC(=O)NC2CCN(Cc3ccccc3)CC2)C(=O)c2cc(Oc3ccccc3)ccc2N1 | 314 | – | – | –
16 | CC(C)[C@H](C(=O)NC1CCN(Cc2ccccc2)CC1)N1CC(=O)Nc2ccc(Oc3ccc(Cl)cc3)cc2C1=O | 28 | – | – | –

Now those with a lower IC50 [1], led by results:

Row | IC50 [1] [nM] | remaining at 1 h [2] [%] | remaining at 1 h [3] [%] | SMILES | other results
17 | 8 | 72 | 62 | CC(C)[C@H](C(=O)N1CCC(NCc2ccccc2)CC1)N1CC(=O)Nc2ccc(Oc3ccccc3)cc2C1=O | –
18 | 8 | 19 | 30 | CC(C)[C@H](C(=O)NC1CCN(Cc2ccccc2)CC1)N1CC(=O)Nc2ccc(Oc3ccccc3)cc2C1=O | CL/F [4]: 143 mL/min/kg; bioavailability [5]: 6%; AUC [6]: 132 ng·h/mL; IC50 [7]: 7 nM; Ki [8]: 4.4 nM
19 | 7 | – | – | Cc1ccc(Oc2ccc3c(c2)C(=O)N([C@@H](C(=O)NC2CCN(Cc4ccccc4)CC2)C(C)C)CC(=O)N3)cc1 | –
20 | 6 | – | – | CC(C)[C@H](C[C@H]1CC[C@@H](NCc2ccccc2)CC1)N1CC(=O)Nc2ccc(Oc3ccccc3)cc2C1=O | –
21 | 4.1 | – | 76 | CC(C)[C@H](C(=O)N1CCC(NCCC2CCCCC2)CC1)N1CC(=O)Nc2ccc(Oc3ccccc3)cc2C1=O | –
22 | 3 | 3 | 5 | Cc1ccccc1Oc1ccc2c(c1)C(=O)N([C@@H](C(=O)NC1CCN(Cc3ccccc3)CC1)C(C)C)CC(=O)N2 | –
23 | 2.5 | 46 | 27 | CC(C)[C@H](C(=O)N1CCC(N[C@H](C)c2ccccc2)CC1)N1CC(=O)Nc2ccc(Oc3ccccc3)cc2C1=O | –
24 | 2.5 | 28 | 30 | CC(C)[C@H](C(=O)N1CCC(N[C@H](C)C2CCCCC2)CC1)N1CC(=O)Nc2ccc(Oc3ccccc3)cc2C1=O | –
25 | 2 | 97 | 92 | CC(C)[C@H](C[C@H]1CC[C@@H](NCC2CC2)CC1)N1CCCc2ccc(Oc3ccc(F)cc3F)cc2C1=O | CL/F [4]: 10 mL/min/kg; bioavailability [5]: 39%; AUC [6]: 618 ng·h/mL
26 | 1 | – | – | Cc1cccc(C)c1Oc1ccc2c(c1)C(=O)N([C@@H](C(=O)NC1CCN(Cc3ccccc3)CC1)C(C)C)CC(=O)N2 | –
27 | 0.3 | 65 | 70 | CC(C)[C@H](C(=O)N1CCC(NCc2ccccc2)CC1)N1CC(=O)Nc2ccc(Oc3ccc(F)cc3F)cc2C1=O | –
28 | 0.2 | 3 | 5 | Cc1cc(F)ccc1Oc1ccc2c(c1)C(=O)N([C@@H](C(=O)NC1CCN(Cc3ccccc3)CC1)C(C)C)CC(=O)N2 | –

— ChEMBL document CHEMBL2010687 (Bioorg Med Chem Lett, 2012)
